According to patent publication US20250388593A1 (MITSUBISHI TANABE PHARMA CORPORATION, priority 2023, published 2025):

Biological target: CRBN truncate (318-426) (Homo sapiens (Human), UniProt Q96SW2)
Test: Measurement of molecular interactions using surface plasmon resonance (SPR), Biacore T200
Assay type: binding
Conditions: 25° C., immobilized CRBN truncate, upper limit of measurement 200 μM
How it was run: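 Compound injections used 60 s association and 120 s dissociation in HEPES pH 7.5 buffer (150 mM NaCl, 1 mM TCEP, 0.005% Tween 20, 2% DMSO). The ligand was CRBN truncate 318-426 bearing a C-terminal Avi-tag, immobilised via streptavidin on an SA sensor chip.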

Chain of CRBN truncate (318-426) (Q96SW2 318-426): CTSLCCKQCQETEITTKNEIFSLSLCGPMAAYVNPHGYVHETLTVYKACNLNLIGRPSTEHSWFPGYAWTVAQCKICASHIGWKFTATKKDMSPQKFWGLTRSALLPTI

SMILES | Kd
COc1ccc2sc(N3CCC4(CCCC(=O)NC4=O)C3)nc2c1 (centres unmarked) [Example 188, 2-(5-Methoxy-1,3-benzothiazol-2-yl)-2,7-diazaspiro[4.6]undecane-6,8-dione] | ≥ 100 µM
CC(C)(C)OC(=O)NCCCCCCCCN1CC2(CC(=O)N(C3CCC(=O)NC3=O)C2=O)C1 (centres unmarked) [Example 51, tert-Butyl N-[8-[6-(2,6-dioxopiperidin-3-yl)-5,7-dioxo-2,6-diazaspiro[3.4]octan-2-yl]octyl]carbamate] | ≥ 100 µM
O=C1CCCC(NS(=O)(=O)c2cccc(Cl)c2)C(=O)N1 (centres unmarked) [Example 9, 3-Chloro-N-(2,7-dioxoazepan-3-yl) benzenesulfonamide] | ≥ 100 µM
CC(C)(C)OC(=O)Nc1ccc(-c2cn(C3CCCC(=O)NC3=O)nn2)cc1 (centres unmarked) [Example 3, tert-Butyl N-[4-[1-(2,7-dioxoazepan-3-yl)triazol-4-yl]phenyl]carbamate] | ≥ 100 µM
CC(C)(C)OC(=O)COc1ccccc1-c1cn(C2CCCC(=O)NC2=O)nn1 (centres unmarked) [Example 149, tert-Butyl 2-[2-[1-(2,7-dioxoazepan-3-yl)triazol-4-yl]phenoxy]acetate] | ≥ 100 µM
Nc1nccc(N2CCC3(CCCC(=O)NC3=O)C2)n1 (centres unmarked) [Example 182, 2-(2-Aminopyrimidin-4-yl)-2,7-diazaspiro[4.6]undecane-6,8-dione] | ≥ 100 µM
COc1ccc2nnn(C3CCCC(=O)NC3=O)c2c1 (centres unmarked) [Example 254, 3-(6-Methoxybenzotriazol-1-yl)azepane-2,7-dione] | ≥ 100 µM
CN(C(=O)c1cccc(-c2ccccc2)c1)C1CCCC(=O)NC1=O (centres unmarked) [Example 20, N-(2,7-Dioxoazepan-3-yl)-N-methyl-3-phenylbenzamide] | ≥ 100 µM
CC1(c2cccc(N)c2)CCCC(=O)NC1=O (centres unmarked) [Example 133, 3-(3-Aminophenyl)-3-methyl-azepane-2,7-dione] | ≥ 100 µM
O=Cc1ccc(N2CCC3(CCCC(=O)NC3=O)C2)nc1 (centres unmarked) [Example 76, 6-(6,8-Dioxo-2,7-diazaspiro[4.6]undecane-2-yl)pyridine-3-carbaldehyde] | ≥ 100 µM
O=C1CCCC(CNC(=O)c2ccccc2)C(=O)N1 (centres unmarked) [Example 57, N-[(2,7-Dioxoazepan-3-yl)methyl]benzamide] | ≥ 100 µM
CC(C)(C)OC(=O)N1CCC(c2cn(C3CCCC(=O)NC3=O)nn2)CC1 (centres unmarked) [Example 2, tert-Butyl 4-[1-(2,7-dioxoazepan-3-yl)triazol-4-yl]piperidine-1-carboxylate] | ≥ 100 µM
COc1ccnc(N2CCC3(CCCC(=O)NC3=O)C2)c1 (centres unmarked) [Example 125, 2-(4-Methoxy-2-pyridyl)-2,7-diazaspiro [4.6]undecane-6,8-dione] | ≥ 100 µM
CC(C)(C)OC(=O)c1ccc(N2CCCC3(COCC(=O)NC3=O)C2)nc1 (centres unmarked) [Example 15, tert-Butyl 6-(10,12-dioxo-8-oxa-2,11-diazaspiro [5.6]dodecan-2-yl) pyridine-3-carboxylate] | ≥ 100 µM
COc1ccc2nc(N3CCC4(CCCC(=O)NC4=O)C3)sc2c1 (centres unmarked) [Example 187, 2-(6-Methoxy-1,3-benzothiazol-2-yl)-2,7-diazaspiro[4.6]undecane-6,8-dione] | 50 to 100 µM
CC(C)(C)OC(=O)c1ccc(N2CCCC3(CCCC(=O)NC3=O)C2)nc1 (centres unmarked) [Example 93, tert-Butyl 6-(7,9-dioxo-2,8-diazaspiro [5.6]dodecan-2-yl) pyridine-3-carboxylate] | ≥ 100 µM
CC(C)(C)OC(=O)Cn1c(=O)n(C2CCCC(=O)NC2=O)c2ccccc21 (centres unmarked) [Example 138, tert-Butyl 2-[3-(2,7-dioxoazepan-3-yl)-2-oxo-benzimidazol-1-yl]acetate] | 50 to 100 µM
O=C1CCCC(n2nc(Cl)ccc2=O)C(=O)N1 (centres unmarked) [Example 252, 3-(3-Chloro-6-oxopyridazin-1-yl)azepane-2,7-dione] | ≥ 100 µM
O=C1CCCC2(CCCN(C(=O)c3ccccc3)CCC2)C(=O)N1 [Example 14, 11-Benzoyl-2,11-diazaspiro[6.7]tetradecane-1,3-dione] | 50 to 100 µM
CN1C(=O)[C@H](N2C=CCC(=O)NC2=O)C[C@H]1c1ccc(/C=C/C(=O)OC(C)(C)C)cc1 (relative stereo) [Example 290, tert-Butyl (E)-3-[4-[(2S*,4R*)-4-(2,4-dioxo-5H-1,3-diazepin-1-yl)-1-methyl-5-oxopyrrolidin-2-yl]phenyl]prop-2-enoate] | ≥ 100 µM
N#Cc1ccccc1N1CCC2(CCCC(=O)NC2=O)C1 (centres unmarked) [Example 191] | ≥ 100 µM
CC(C)(C)OC(=O)c1ccc(N2CCN(C3CCCC(=O)NC3=O)C(=O)C2)nc1 (centres unmarked) [Example 30, tert-Butyl 6-[4-(2,7-dioxoazepan-3-yl)-3-oxopiperazin-1-yl]pyridine-3-carboxylate] | ≥ 100 µM
Cc1sc2c(c1C)C(c1ccc(Cl)cc1)=N[C@@H](CC(=O)NCCCCCCCNC(=O)CN1CCC3(CCCC(=O)NC3=O)CC1=O)c1nnc(C)n1-2 (stereo partly drawn) [Example 345, 2-[(9S)-7-(4-chlorophenyl)-4,5,13-trimethyl-3-thia-1,8,11,12-tetraazatricyclo[8.3.0.02,6]trideca-2(6),4,7,10,12-pentaen-9-yl]-N-[7-[[2-(4,7,9-trioxo-3,8-diazaspiro[5.6]dodecan-3-yl)acetyl]amino]heptyl]acetamide] | 50 to 100 µM

Further lines, results first:

Kd | SMILES
< 50 µM | Cc1sc2c(c1C)C(c1ccc(Cl)cc1)=N[C@@H](CC(=O)NCCCCCCCCNC(=O)c1ccc(OC3CCCC(=O)NC3=O)nc1)c1nnc(C)n1-2 (stereo partly drawn) [Example 338, N-[8-[[2-[(9S)-7-(4-chlorophenyl)-4,5,13-trimethyl-3-thia-1,8,11,12-tetraazatricyclo[8.3.0.02,6]trideca-2(6),4,7,10,12-pentaen-9-yl]acetyl]amino]octyl]-6-(2,7-dioxoazepan-3-yl)oxypyridine-3-carboxamide]
50 to 100 µM | Cn1c(=O)n(C2CCCC(=O)NC2=O)c(=O)c2ccc(Br)cc21 (centres unmarked) [Example 261, 7-Bromo-3-(2,7-dioxoazepan-3-yl)-1-methylquinazoline-2,4-dione]
< 50 µM | Cc1sc2c(c1C)C(c1ccc(Cl)cc1)=N[C@@H](CC(=O)NCCCCCCCCNC(=O)COc1ccccc1-c1cn(C3CCCC(=O)NC3=O)nn1)c1nnc(C)n1-2 (stereo partly drawn) [Example 340, 2-[(9S)-7-(4-chlorophenyl)-4,5,13-trimethyl-3-thia-1,8,11,12-tetraazatricyclo[8.3.0.02,6]trideca-2(6),4,7,10,12-pentaen-9-yl]-N-[8-[[2-[2-[1-(2,7-dioxoazepan-3-yl)triazol-4-yl]phenoxy]acetyl]amino]octyl]acetamide]
50 to 100 µM | CC(C)(C)OC(=O)c1ccc(N2CC3(CC(=O)N(C4CCC(=O)NC4=O)C3=O)C2)nc1 (centres unmarked) [Example 45, tert-Butyl 6-[6-(2,6-dioxopiperidin-3-yl)-5,7-dioxo-2,6-diazaspiro [3.4]octan-2-yl]pyridine-3-carboxylate]
< 50 µM | COC(=O)c1cc2c(N3CCC4(CCCC(=O)NC4=O)C3)ncnc2n1C (centres unmarked) [Example 36, Methyl 4-(6,8-dioxo-2,7-diazaspiro[4.6]undecan-2-yl)-7-methyl-pyrrolo[2,3-d]pyrimidine-6-carboxylate]
< 50 µM | CC(C)(C)OC(=O)CCCCCCCn1c(=O)n(C2CCCC(=O)NC2=O)c2ccccc21 (centres unmarked) [Example 195, tert-Butyl 8-[3-(2,7-dioxoazepan-3-yl)-2-oxobenzimidazol-1-yl]octanoate]
< 50 µM | O=C1CCCC2(CCN(c3ccc([N+](=O)[O-])cc3F)C2)C(=O)N1 (centres unmarked) [Example 83, 2-(2-Fluoro-4-nitrophenyl)-2,7-diazaspiro[4.6]undecane-6,8-dione]
50 to 100 µM | CC(C)(C)OC(=O)c1ccc(N2CCCC3(CCCC(=O)NC3=O)CCC2)nc1 [Example 56, tert-Butyl 6-(1,3-dioxo-2,11-diazaspiro [6.7]tetradecan-11-yl) pyridine-3-carboxylate]
< 50 µM | Cc1sc2c(c1C)C(c1ccc(Cl)cc1)=N[C@@H](CC(=O)NCCCCCCCCNC(=O)CCc1ccc(-c3nn(C4CCCC(=O)NC4=O)c(=O)n3C)cc1)c1nnc(C)n1-2 (stereo partly drawn) [Example 336, N-[8-[[2-[(9S)-7-(4-chlorophenyl)-4,5,13-trimethyl-3-thia-1,8,11,12-tetraazatricyclo[8.3.0.02,6]trideca-2(6),4,7,10,12-pentaen-9-yl]acetyl]amino]octyl]-3-[4-[1-(2,7-dioxoazepan-3-yl)-4-methyl-5-oxo-1,2,4-triazol-3-yl]phenyl]propanamide]
< 50 µM | CC(C)(C)OC(=O)c1ccc(N2CCC3(CCCC(=O)NC3=O)C2)cc1 (centres unmarked) [Example 128, tert-Butyl 4-(6,8-dioxo-2,7-diazaspiro [4.6]undecan-2-yl) benzoate]
< 50 µM | Cn1c(=O)n(C2CCCC(=O)NC2=O)c2cccc(C#CCCCCCC(=O)OC(C)(C)C)c21 (centres unmarked) [Example 206, tert-Butyl 8-[1-(2,7-dioxoazepan-3-yl)-3-methyl-2-oxobenzimidazol-4-yl]oct-7-ynoate]
50 to 100 µM | CC(C)(C)OC(=O)NCCCCCCn1ccc2c(C(=O)N3CCC4(CCCC(=O)NC4=O)C3)cccc21 (centres unmarked) [Example 162, tert-Butyl N-[6-[4-(6,8-dioxo-2,7-diazaspiro [4.6]undecane-2-carbonyl)indol-1-yl]hexyl]carbamate]
50 to 100 µM | CC(C)(C)OC(=O)c1cccc(C2CCCC(=O)NC2=O)c1 (centres unmarked) [Example 60, tert-Butyl 3-(2,7-dioxoazepan-3-yl) benzoate]
< 50 µM | Cc1sc2c(c1C)C(c1ccc(Cl)cc1)=N[C@@H](CC(=O)NCCCCCCCCNC(=O)c1ccc3nc(N4CCC5(CCCC(=O)NC5=O)C4)sc3c1)c1nnc(C)n1-2 (stereo partly drawn) [Example 329, N-[8-[[2-[(9S)-7-(4-chlorophenyl)-4,5,13-trimethyl-3-thia-1,8,11,12-tetraazatricyclo[8.3.0.02,6]trideca-2(6),4,7,10,12-pentaen-9-yl]acetyl]amino]octyl]-2-(6,8-dioxo-2,7-diazaspiro[4.6]undecan-2-yl)-1,3-benzothiazole-6-carboxamide]
< 50 µM | CC(C)(C)OC(=O)c1ccc(N2CCC3(CCCC(=O)NC3=O)C2)nc1 (centres unmarked) [Example 90-1, tert-Butyl 6-(6,8-dioxo-2,7-diazaspiro [4.6]undecan-2-yl) pyridine-3-carboxylate]
